We go through one substance from patent US7531318B2, “Screening of agents for activity against ischemic myocardial insults” (priority 2004, dated 2009).

The assay deals with ILK, Akt (serine 473) in C2C12 myoblasts and embryonic heart explants. In words: ILK localization/expression and Akt phosphorylation by immunocytochemistry and western blot. It counts as cell-based. On the procedure: Immunocytochemistry on collagen gel explants. Paraformaldehyde-fixed explants were permeabilized for 10 min at room temperature with Permeabilize solution (10 mM PIPES pH 6.8; 50 mM NaCl, 0.5% Triton X-100, 300 mM sucrose, 3 mM MgCl2) and rinsed with PBS twice for 5 min each at room temperature. After a series of blocking and rinsing steps, detection antibodies were used and explants rinsed and incubated with equilibration buffer (Anti-Fade kit) for 10 min at room temperature. Explants were scooped to a glass microscope slide, covered and examined by fluorescein microscopy. TUNEL assay was performed using ApopTag plus fluorescein in situ apoptosis detection kit (Intergen Company S7111) as recommended.
Because recruitment of ILK to the focal adhesion complex is important for its activation, the inventors assayed the effects of thymosin β4 on ILK localization and expression. […] Because thymosin β4 sequesters the pool of G-actin monomers, the inventors asked whether the effects on ILK activation were dependent on the role of thymosin β4 in regulating the balance between polymerized F-actin and monomeric G-actin.
A general note: In western blotting, separated proteins are transferred to a membrane and probed.

For the substance thymosin β4, for the setting “C2C12 cells”, the “ILK protein levels (western)” value was “modest increase” and the “total Akt protein” value is reported as “unchanged”. Besides, the “phosphorylation of Akt at serine 473” value (C2C12 cells, phospho-specific antibody) is “increased phosphorylation”. Under “embryonic heart explants or C2C12 myoblasts, synthetic protein 10 ng per 100 μl or expressing plasmid”, the “ILK detection around the cell edges by immunocytochemistry” value is “markedly enhanced”.
